# Legend:
# Assay type in all cases: cell-based, mouse
# IL-1β = IL-1β protein by ELISA in LPS-stimulated RAW macrophage cells; settings: RAW293 cells, 0.5 mM before LPS stimulation
# Description: ELISA for mouse IL-1 beta: Raw cells were treated as described in real time PCR. 50 ul of conditioned medium or 100 ug of cell lysate was used to determine the amount of IL-1 beta as per manufactory's instruction (Cat. No. MLB00B, Quantikine)
# (§1) The RAW293 mouse macrophage cell model system is commonly used to assess anti-inflammatory activity of compounds. The cells are treated with lipopolysaccharide which induces a massive inflammatory response, of which compounds can be tested for their ability to protect against. RAW293 cells were pretreated with hPULCFA-enriched extract followed by treatment with LPS for 24 hours after which mRNA transcript and protein levels of pro-inflammatory markers including the cytokines tumor necrosis factor alpha (TNFα) and interleukin-1 beta (IL-1β), iNOS as described above, cyclooxygenase 2 (COX2, the enzyme responsible for the production of pro-inflammatory eicosanoids from arachidonic acid) were assessed.
# TNFα = TNFα protein by ELISA in LPS-stimulated RAW macrophage cells; settings: RAW293 cells, 0.5 mM before LPS stimulation
# Description: ELISA for mouse TNF alpha: Raw cells were treated as described in real time PCR. Conditioned medium was collected. Cells was briefly washed with ice cold PBS and lysed with lysis buffer (Jerry's recipe); Protein in the cell lysate was quantified using the Bio-Rad Protein Assay (Bio-Rad, Hercules, Calif.). 50 ul of conditioned medium or 100 ug of cell lysate per well was used to determine the amount of TNF alpha as per manufactory's instruction (Cat. No. KMC3011, Invitrogen).
# as §1
# TNFα mRNA transcript = assay: TNFα mRNA by quantitative real-time PCR in LPS-stimulated RAW macrophage cells; settings: RAW264.7 cells, 500 uM (0.5 mM) before LPS stimulation
# Description: Quantitative Real time PCR: RAW264.7 cells were seeded at 1×10^6/well in […] plate the day before the treatment. The following day, the cells were treated with different concentration of hPUCLFA(D046) or 1% FA/DMSO (DMSO) as vehicle control for 4 hours; each treatment was in duplicate; then stimulated with LPS at 1 μg/ml (cat. No. L4391, Sigma) for 20 hours. Total RNA was isolated from cell pellets using Trizol (Cat. No. 15596-018, Invitrogen) as per manufacturer's instruction. The RNA pellets were resuspended in 50 μL of DEPC treated water and stored at −80° C. RNA concentration and purity was determined by spectrophotometry at 260 and 280 nm. […]
# as §1, with “The cells are treated with lipopolysaccharide which induces a massive inflammatory response, of which compounds can be tested for their ability to protect against.” left out
structure (smiles),measurement,setting,value
CCCC(O)C/C=C\C(O)/C=C\C/C=C\C/C=C\C/C=C\CCCCCCCCC(=O)O (stereo not drawn) [Compound D046-124],levels of IL-1β in conditioned media,IL-1β,completely blocked
same,TNFα protein level in conditioned media,TNFα,prevented the induction
same,induction of TNFα transcripts,TNFα mRNA transcript,prevented the induction

# Source: US20120136057A1, “HYDROXY FATTY ACID COMPOUNDS AND USES THEREOF FOR DISEASE TREATMENT AND DIAGNOSIS” (PHENOMENOME DISCOVERIES INC., priority 2009, published 2012)
